This is an account of results in patent US9789111B2, “Casein kinase 1δ (CK 1δ) inhibitors” (Electrophoretics Limited, priority 2010, dated 2017).

Structures are written as SMILES.

In experiment [1] the test system is total Tau in SH-SY5Y-TMHT cells. The experiment is described as follows: Western Blot of total Tau. Format: cell-based, human. Conditions: 10 μM. On the procedure: SH-SY5Y-TMHT cells are kept in culture medium (DMEM medium, 10% FCS, 1% NEAA, 1% L-Glutamine, 100 μg/ml Gentamycin, 300 μg/ml Geneticin G-418) for 2 days until 80-90% confluency. Cells are then differentiated in culture medium supplemented with 10 μM retinoic acid (RA) for 7 days changing medium every 2 to 3 days. Differentiated cells are seeded onto 6-well plates and 96-well plates at a cell density of 1.25×10^6 and 8×10^5 cells per well, respectively. On day 8 post-differentiation, the test compounds, reference compounds and vehicle control were added to the culture medium. After 6 h of compound exposure one plate of cells is subjected to a MTT assay to evaluate the effect of test and reference items on cell viability. Remaining wells are washed once with cold PBS and harvested in 300 μl RIPA-Buffer [50 mM Tris pH 7.4, 1% Nonident P40, 0.25% Na-deoxy-cholate, 150 mM NaCl, 1 mM EDTA, 1 μM NaF, 1 μM Na-ortho-vanadate, 80 mM Glycerophosphate, supplemented with freshly added protease (Calbiochem) and phosphatase (Sigma) inhibitor cocktail]. The cell suspension is transferred into a 1.5 ml tube and additionally lysed by sonication on ice. An aliquot of 20 μl is taken for the determination of the protein concentration (BCA assay). Subsequently, the lysates are snap frozen and stored at −80° C. until shipment.
Lysates of treated cells were prepared in Laemmli buffer and 10 μg loaded into each lane of a 10% Nu-PAGE gel (Invitrogen, UK). Samples were run until the coomassie blue dye fromt was within 1 cm of the bottom of the gel. The separated proteins were transferred onto nitrocellulose and blots developed using antibodies specific for total tau (Polyclonal Rabbit Anti-Human Tau, Dako, UK (cat # A0024)) and phopho-Threonine 231 (Tau (Phospho-Thr231) Antibody, Signalway Antibody, USA (cat # 11110)) respectively. In each case the bound antibody was detected using ECL Rabbit IgG, HRP-Linked (from donkey) (GE Healthcare, UK (cat # NA934))

Another experiment concerns the target T1, PDK1/PDPK1 (Homo sapiens, UniProt O15530).
T1 sequence (O15530 1-556): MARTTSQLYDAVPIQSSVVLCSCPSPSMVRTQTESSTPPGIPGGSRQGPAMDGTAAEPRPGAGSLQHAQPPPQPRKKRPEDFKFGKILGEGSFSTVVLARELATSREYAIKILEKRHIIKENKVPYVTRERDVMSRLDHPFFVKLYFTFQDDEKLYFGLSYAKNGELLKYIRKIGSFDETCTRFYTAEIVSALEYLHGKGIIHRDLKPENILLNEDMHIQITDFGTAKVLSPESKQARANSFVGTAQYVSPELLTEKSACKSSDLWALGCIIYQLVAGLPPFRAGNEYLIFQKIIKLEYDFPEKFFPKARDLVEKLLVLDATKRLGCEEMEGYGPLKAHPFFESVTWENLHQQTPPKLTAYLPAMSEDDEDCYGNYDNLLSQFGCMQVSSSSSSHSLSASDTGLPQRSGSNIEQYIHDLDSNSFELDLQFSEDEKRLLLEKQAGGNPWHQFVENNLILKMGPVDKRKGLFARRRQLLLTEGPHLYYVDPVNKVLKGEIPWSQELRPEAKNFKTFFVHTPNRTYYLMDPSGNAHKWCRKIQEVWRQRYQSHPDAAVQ
The experiment is described as follows: kinase inhibition assay panel. The class given is biochemical. On the procedure:
(§1) Base Reaction buffer; 20 mM Hepes (pH 7.5), 10 mM MgCl2, 1 mM EGTA, 0.02% Brij35, 0.02 mg/ml BSA, 0.1 mM Na3VO4, 2 mM DTT, 1% DMSO
(§2) It should be noted that required cofactors are added individually to each kinase reaction.
(§3) • 1. Prepare indicated substrate in freshly prepared Base Reaction Buffer as described above • 2. Deliver any required cofactors to the substrate solution • 3. Deliver indicated kinase into the substrate solution and gently mix • 4. Deliver compounds in DMSO into the kinase reaction mixture • 5. Deliver ^33P-ATP (specific activity 0.01 μCi/μl final) into the reaction mixture to initiate the reaction • 6. Incubate kinase reaction for 120 min. at room temperature • 7. Reactions are spotted onto P81 ion exchange paper (Whatman #3698-915) • 8. Wash filters extensively in 0.75% Phosphoric acid Kinase Information: • CK1δ—Genbank Accession # NP_620693 • Recombinant human full-length construct. GST-tagged, expressed in insect cells. • Final concentration in assay=4 nM • Substrate: CK1tide • Substrate sequence: [KRRRAL[pS]VASLPGL] • Final substrate concentration in assay=20 μM • It should be noted that no additional cofactors are added to the reaction mixture.

The target of another experiment is PIM3 (Homo sapiens, UniProt Q86V86). As to the kind of experiment: kinase inhibition assay panel. Format: biochemical. As for the experimental part: as §1, §2, §3
The next experiment concerns the target PKCb2 (Homo sapiens, UniProt P05771). As to the kind of experiment: kinase inhibition assay panel. The class given is biochemical. As for the experimental part: as §1, §2, §3
The target in a further experiment is JNK2 (Homo sapiens, UniProt P45984). As to the kind of experiment: kinase inhibition assay panel. The class given is biochemical. On the procedure:
as §1, §2, §3

The next experiment deals with PKCa (Homo sapiens, UniProt P17252). The experiment is described as follows: kinase inhibition assay panel. Format: biochemical. As for the experimental part:
as §1, §2, §3

Another experiment deals with LCK (Homo sapiens, UniProt P06239). As to the kind of experiment: kinase inhibition assay panel. Format: biochemical. As for the experimental part:
as §1, §2, §3

The target of another experiment is ROCK1 (Homo sapiens, UniProt Q13464). The experiment is described as follows: kinase inhibition assay panel. The class given is biochemical. On the procedure:
as §1, §2, §3

The next experiment addresses ABL2/ARG (Homo sapiens, UniProt P42684). The experiment is described as follows: kinase inhibition assay panel. Format: biochemical. As for the experimental part:
as §1, §2, §3

Another experiment has as its target GSK3b (Homo sapiens, UniProt P49841). The experiment is described as follows: kinase inhibition assay panel. Format: biochemical. As for the experimental part: as §1, §2, §3
A further experiment has as its target CDK5/p25 (Homo sapiens, UniProt Q00535). The experiment is described as follows: kinase inhibition assay panel. The class given is biochemical. On the procedure: as §1, §2, §3
The target in the next experiment is c-SRC (Homo sapiens, UniProt P12931). The experiment is described as follows: kinase inhibition assay panel. Format: biochemical. On the procedure:
as §1, §2, §3

The target in a further experiment is TNIK (Homo sapiens, UniProt Q9UKE5). The experiment is described as follows: kinase inhibition assay panel. Format: biochemical. On the procedure: as §1, §2, §3
The target in another experiment is KDR/VEGFR2 (Homo sapiens, UniProt P35968). The experiment is described as follows: kinase inhibition assay panel. The class given is biochemical. As for the experimental part:
as §1, §2, §3

A further experiment addresses HGK/MAP4K4 (Homo sapiens, UniProt O95819). As to the kind of experiment: kinase inhibition assay panel. The class given is biochemical. As for the experimental part:
as §1, §2, §3

In a further experiment the target is MSK1/RPS6KA5 (Homo sapiens, UniProt O75582). The experiment is described as follows: kinase inhibition assay panel. The class given is biochemical. On the procedure:
as §1, §2, §3

The target of the next experiment is CK1g3 (Homo sapiens, UniProt Q9Y6M4). The experiment is described as follows: kinase inhibition assay panel. Format: biochemical.
Sequence of CK1g3 (Q9Y6M4 whole entry): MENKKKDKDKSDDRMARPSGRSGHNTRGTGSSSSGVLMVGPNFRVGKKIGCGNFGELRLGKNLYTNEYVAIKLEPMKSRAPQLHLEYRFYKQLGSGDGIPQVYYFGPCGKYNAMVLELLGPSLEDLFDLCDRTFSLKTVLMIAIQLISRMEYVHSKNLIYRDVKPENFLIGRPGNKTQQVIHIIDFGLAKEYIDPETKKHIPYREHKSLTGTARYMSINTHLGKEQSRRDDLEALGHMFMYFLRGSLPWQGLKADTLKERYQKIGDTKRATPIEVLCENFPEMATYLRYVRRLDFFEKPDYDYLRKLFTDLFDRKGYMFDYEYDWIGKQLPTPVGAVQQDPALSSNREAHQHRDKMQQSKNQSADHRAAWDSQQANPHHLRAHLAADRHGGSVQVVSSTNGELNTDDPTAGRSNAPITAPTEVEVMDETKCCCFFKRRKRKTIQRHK

Sequence of LCK (P06239 whole entry, species assumed): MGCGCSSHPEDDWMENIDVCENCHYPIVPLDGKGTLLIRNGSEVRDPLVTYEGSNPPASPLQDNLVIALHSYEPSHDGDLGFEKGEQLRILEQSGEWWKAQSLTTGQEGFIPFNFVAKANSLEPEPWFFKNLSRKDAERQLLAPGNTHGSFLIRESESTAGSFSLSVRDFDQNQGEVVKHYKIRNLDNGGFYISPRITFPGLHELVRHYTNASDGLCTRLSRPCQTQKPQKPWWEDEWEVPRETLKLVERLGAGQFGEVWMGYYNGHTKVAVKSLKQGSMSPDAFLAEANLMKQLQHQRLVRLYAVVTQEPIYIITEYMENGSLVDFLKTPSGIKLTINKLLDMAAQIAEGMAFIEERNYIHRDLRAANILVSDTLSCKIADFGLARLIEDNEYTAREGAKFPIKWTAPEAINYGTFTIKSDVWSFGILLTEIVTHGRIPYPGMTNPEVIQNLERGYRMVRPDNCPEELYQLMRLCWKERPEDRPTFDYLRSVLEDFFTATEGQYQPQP
Sequence of PKCb2 (P05771 1-673 isoform P05771-2): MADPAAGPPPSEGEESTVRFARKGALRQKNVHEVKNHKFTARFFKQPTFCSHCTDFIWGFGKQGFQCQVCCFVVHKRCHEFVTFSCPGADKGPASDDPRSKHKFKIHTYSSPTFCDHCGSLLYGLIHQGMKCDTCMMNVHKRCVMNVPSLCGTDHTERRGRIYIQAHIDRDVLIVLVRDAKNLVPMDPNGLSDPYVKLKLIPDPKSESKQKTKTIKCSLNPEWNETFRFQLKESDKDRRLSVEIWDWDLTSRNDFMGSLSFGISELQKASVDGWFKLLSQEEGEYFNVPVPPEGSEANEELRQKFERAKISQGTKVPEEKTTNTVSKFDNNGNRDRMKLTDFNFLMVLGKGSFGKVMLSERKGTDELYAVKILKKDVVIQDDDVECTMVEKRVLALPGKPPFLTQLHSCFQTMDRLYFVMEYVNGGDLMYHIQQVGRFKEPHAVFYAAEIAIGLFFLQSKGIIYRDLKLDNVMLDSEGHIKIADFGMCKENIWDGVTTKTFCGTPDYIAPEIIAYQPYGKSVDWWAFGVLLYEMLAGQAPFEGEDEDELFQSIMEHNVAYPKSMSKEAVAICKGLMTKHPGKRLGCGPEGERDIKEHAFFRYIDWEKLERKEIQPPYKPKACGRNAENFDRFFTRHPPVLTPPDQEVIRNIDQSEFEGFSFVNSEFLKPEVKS
Sequence of JNK2 (P45984 whole entry, species assumed): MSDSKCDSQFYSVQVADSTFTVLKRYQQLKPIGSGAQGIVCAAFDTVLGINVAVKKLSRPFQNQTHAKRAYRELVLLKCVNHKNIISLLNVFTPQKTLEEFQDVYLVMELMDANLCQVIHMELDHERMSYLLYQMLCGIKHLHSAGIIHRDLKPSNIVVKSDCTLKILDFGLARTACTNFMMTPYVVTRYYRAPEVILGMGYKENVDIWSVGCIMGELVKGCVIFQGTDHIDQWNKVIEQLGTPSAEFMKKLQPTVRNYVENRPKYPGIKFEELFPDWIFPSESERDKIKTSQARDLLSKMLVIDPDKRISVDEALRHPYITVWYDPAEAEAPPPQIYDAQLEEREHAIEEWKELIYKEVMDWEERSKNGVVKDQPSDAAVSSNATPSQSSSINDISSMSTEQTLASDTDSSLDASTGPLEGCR
Sequence of MSK1/RPS6KA5 (O75582 whole entry): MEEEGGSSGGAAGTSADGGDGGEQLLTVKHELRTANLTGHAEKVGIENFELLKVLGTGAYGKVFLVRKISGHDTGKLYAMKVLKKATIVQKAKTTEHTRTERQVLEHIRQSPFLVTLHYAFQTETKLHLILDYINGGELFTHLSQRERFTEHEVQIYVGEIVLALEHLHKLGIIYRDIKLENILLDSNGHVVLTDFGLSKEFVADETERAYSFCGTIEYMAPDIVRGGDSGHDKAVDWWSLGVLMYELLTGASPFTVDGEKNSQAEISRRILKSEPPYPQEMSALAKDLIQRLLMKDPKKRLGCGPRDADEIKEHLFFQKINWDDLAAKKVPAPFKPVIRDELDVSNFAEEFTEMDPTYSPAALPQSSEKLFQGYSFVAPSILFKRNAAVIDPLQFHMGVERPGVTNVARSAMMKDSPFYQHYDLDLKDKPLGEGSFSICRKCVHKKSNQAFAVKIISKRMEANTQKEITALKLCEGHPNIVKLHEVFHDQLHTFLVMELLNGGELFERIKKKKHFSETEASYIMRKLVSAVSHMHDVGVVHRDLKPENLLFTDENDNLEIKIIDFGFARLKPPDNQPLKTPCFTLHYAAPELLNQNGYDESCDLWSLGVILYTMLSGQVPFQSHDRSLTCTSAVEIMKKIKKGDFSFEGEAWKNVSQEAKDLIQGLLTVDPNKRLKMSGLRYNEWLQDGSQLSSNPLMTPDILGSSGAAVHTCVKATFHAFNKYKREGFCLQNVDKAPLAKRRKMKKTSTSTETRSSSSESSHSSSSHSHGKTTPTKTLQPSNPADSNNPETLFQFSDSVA
Sequence of ABL2/ARG (P42684 whole entry): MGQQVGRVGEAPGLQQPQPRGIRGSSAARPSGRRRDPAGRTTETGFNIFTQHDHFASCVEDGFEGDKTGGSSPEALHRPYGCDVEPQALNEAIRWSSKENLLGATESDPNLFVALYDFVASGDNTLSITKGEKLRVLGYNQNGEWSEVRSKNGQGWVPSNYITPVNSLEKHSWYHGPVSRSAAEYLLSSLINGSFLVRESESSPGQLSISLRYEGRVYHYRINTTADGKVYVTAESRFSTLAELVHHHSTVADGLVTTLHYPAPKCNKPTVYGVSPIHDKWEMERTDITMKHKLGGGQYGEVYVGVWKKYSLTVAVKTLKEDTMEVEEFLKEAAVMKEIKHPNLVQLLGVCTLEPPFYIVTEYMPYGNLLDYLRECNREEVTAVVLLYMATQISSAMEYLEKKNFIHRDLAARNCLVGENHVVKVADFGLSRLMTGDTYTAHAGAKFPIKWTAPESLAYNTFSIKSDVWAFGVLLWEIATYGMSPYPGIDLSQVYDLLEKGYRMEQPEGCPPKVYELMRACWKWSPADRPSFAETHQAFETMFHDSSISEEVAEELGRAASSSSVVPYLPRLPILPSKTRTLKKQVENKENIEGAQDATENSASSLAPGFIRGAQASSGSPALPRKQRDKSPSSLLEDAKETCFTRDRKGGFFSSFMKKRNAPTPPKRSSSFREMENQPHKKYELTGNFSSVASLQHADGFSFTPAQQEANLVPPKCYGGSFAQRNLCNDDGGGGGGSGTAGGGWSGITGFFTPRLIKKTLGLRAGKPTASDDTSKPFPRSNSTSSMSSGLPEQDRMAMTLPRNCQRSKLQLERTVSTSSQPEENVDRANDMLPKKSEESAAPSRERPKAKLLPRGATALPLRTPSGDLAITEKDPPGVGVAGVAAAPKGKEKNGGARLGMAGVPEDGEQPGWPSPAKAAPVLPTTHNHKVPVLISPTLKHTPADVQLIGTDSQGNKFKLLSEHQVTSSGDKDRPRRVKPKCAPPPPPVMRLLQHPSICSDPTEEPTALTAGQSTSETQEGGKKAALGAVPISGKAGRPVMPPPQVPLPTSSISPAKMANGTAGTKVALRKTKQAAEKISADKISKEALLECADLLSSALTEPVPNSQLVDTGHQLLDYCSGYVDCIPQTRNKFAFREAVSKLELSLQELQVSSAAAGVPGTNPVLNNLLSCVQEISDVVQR

On to `Nc1ncc(-c2nc3ccccc3o2)c(-c2ccncc2)n1` [Compound 324, 5-(1,3-benzoxazol-2-yl)-4-(pyridin-4-yl)pyrimidin-2-amine], for which the “detectable levels of total Tau” value in experiment [1] was “no significant difference”. In addition, the “inhibition of PDK1/PDPK1” value against PDK1/PDPK1 is on record as “lower than 40%”. On PIM3, the “inhibition of PIM3” value is reported as “lower than 40%”. On PKCb2, the “inhibition of PKCb2” value was “lower than 40%”. On JNK2, the “inhibition of JNK2” value is on record as “lower than 40%”. In addition, on PKCa, the “inhibition of PKCa” value is “lower than 40%”. Further, the “inhibition of LCK” value against LCK is “lower than 40%”. Besides, on ROCK1, the “inhibition of ROCK1” value is “lower than 40%”. Moreover, at ABL2/ARG, the “inhibition of ABL2/ARG” value is “lower than 40%”. Besides, the “inhibition of GSK3b” value against GSK3b is on record as “lower than 40%”. Further, the “inhibition of CDK5/p25” value on CDK5/p25 was “lower than 40%”. Moreover, the “inhibition of c-SRC” value against c-SRC is recorded as “lower than 40%”. For the same compound, on TNIK, the “inhibition of TNIK” value is recorded as “lower than 40%”. The “inhibition of KDR/VEGFR2” value against KDR/VEGFR2 was “lower than 40%”. For the same compound, the “inhibition of HGK/MAP4K4” value against HGK/MAP4K4 is “lower than 40%”. Besides, the “inhibition of MSK1/RPS6KA5” value against MSK1/RPS6KA5 was “lower than 40%”. For the same compound, on CK1g3, the “inhibition of CK1g3” value is “lower than 40%”.
In the case of `NC(=O)c1c(N)c(C(=O)c2ccc(F)cc2)n2ccccc12` [Compound 987, 2-amino-3-[(4-fluorophenyl)carbonyl]indolizine-1-carboxamide], the “detectable levels of total Tau” value in experiment [1] is “no significant difference”. At PDK1/PDPK1, the “inhibition of PDK1/PDPK1” value is listed as “lower than 40%”. Besides, the “inhibition of PIM3” value on PIM3 is reported as “lower than 40%”. Moreover, the “inhibition of PKCb2” value on PKCb2 was “lower than 40%”. Further, on JNK2, the “inhibition of JNK2” value is recorded as “lower than 40%”. Also, the “inhibition of PKCa” value against PKCa is “lower than 40%”. In addition, at LCK, the “inhibition of LCK” value is listed as “lower than 40%”. In addition, the “inhibition of ROCK1” value against ROCK1 is “lower than 40%”. The “inhibition of ABL2/ARG” value against ABL2/ARG is reported as “lower than 40%”. For the same compound, the “inhibition of GSK3b” value at GSK3b is “lower than 40%”. The “inhibition of CDK5/p25” value against CDK5/p25 is recorded as “lower than 40%”. In addition, on c-SRC, the “inhibition of c-SRC” value is listed as “lower than 40%”. The “inhibition of TNIK” value at TNIK was “lower than 40%”. The “inhibition of KDR/VEGFR2” value at KDR/VEGFR2 is reported as “lower than 40%”. Also, the “inhibition of HGK/MAP4K4” value against HGK/MAP4K4 is given as “lower than 40%”. At MSK1/RPS6KA5, the “inhibition of MSK1/RPS6KA5” value is “lower than 40%”. Further, at CK1g3, the “inhibition of CK1g3” value is listed as “lower than 40%”.
